Where a name gives a salt, the structure may show the parent alone.
Legend:
migraine attack = conditions: human, open pilot study; cited from earlier work
cardiogenic shock = conditions: human, randomized trial of 30 patients; reduced from 67%; cited from earlier work
migraine = conditions: human, single i.v. administration; cited from earlier work
persistent shock = conditions: human, up to 30 days; cited from earlier work
[1] = target: Nitric oxide synthase (neuronal, human recombinant) nNOS (Homo sapiens (Human), UniProt P29475); test: Human nNOS enzyme assay ([3H]-L-arginine to L-citrulline conversion); format: biochemical; conditions: for Selectivity eNOS/nNOS: ratio of human eNOS IC50 to human nNOS IC50; for IC50: recombinant human nNOS
Protocol: (§1) nNOS (Human), eNOS (Human) and iNOS (Human) Enzyme Assay
(§2) Primary stock solutions of test compounds at a concentration of 6 mM were prepared from the 2 to 5 mg powder. The primary stock solutions of each test compound were prepared freshly in distilled water on the day of study to obtain a final concentration of 6 mM. For determination of IC50 values, 12 test compound concentrations were prepared as 3-fold serial dilutions. Concentration range of test compound utilized for nNOS were 0.001 to 300 μM and for eNOS were 0.003 to 1000 μM. The vehicle of the test compound or inhibitor was used as blank control. For non-specific activity, 100 μM L-NMMA was used. Runs using the IC50 concentration of L-NAME were done in parallel as controls.
(§3) All incubations are performed in duplicate
(§4) The reaction mixture was prepared on ice by adding the following components with a micropipette to a polypropylene microcentrifuge tube: • 10 μL of test compound, inhibitor or control (vehicle or L-NMMA) solution; • 25 μL of Reaction Buffer {25 mM Tris-HCl, 0.6 μM BH4, 0.2 μM FMN, 0.2 μM FAD}; • 5 μL of 10 mM NADPH solution {1 mM} (freshly prepared in 10 mM Tris-HCl (pH 7.4); • 5 μL of 6 mM CaCl2 {600 W}; • 5 μL of 1 mM Calmodulin {100 W}; and • 5 μL of 0.02 μg/μL nNOS or 0.12 μg/μL eNOS.
(§5) The above reaction mixture was pre-incubated at room temperature for 15 mins.
(§6) The reaction was started by the addition of the substrate (in 5 μL containing 1 μCi of [^3H]-L-Arginine+2.5 μM of unlabeled L-Arginine) to the reaction mixture. Total reaction volume is 60 μL.
(§7) The reaction was mixed using a vortex mixer and incubate the above reaction mixture at 37° C. in an incubator for 30 minutes.
(§8) To stop the reaction, 400 μL of ice-cold Stop Buffer was added at the end of the incubation period.
(§9) The reaction was then mixed using a vortex mixer, and the reaction samples were transferred to spin cups, which were centrifuged using a microcentrifuge, at 13,000 rpm for 30 sec. at room temperature.
(§10) The spin cups were removed from the holder, 450 μL of eluate (containing the unbound L-citrulline) were transferred to scintillation vials. 3 mL of scintillation fluid were added and the radioactivity was quantified in a liquid scintillation counter.
(§11) Data was analyzed using a Sigmoidal dose-response (variable slope) curve to determine the IC50 value of the test compound. Y=Bottom+(Top−Bottom)/(1+10^((Log IC50−X)*Hill Slope))

[2] = target: Nitric oxide synthase (endothelial, human recombinant) eNOS (Homo sapiens (Human), UniProt P29474); test: Human eNOS enzyme assay ([3H]-L-arginine to L-citrulline conversion); format: biochemical
Protocol: as §1, §2, §3, §4, §5, §6, §7, §8, §9, §10, §11

[3] = target: Recombinant human inducible NOS (iNOS) (Homo sapiens (Human), UniProt P35228); test: Human iNOS enzyme assay (Protocol 1 or Protocol 2, radiometric); format: biochemical
Protocol: The human iNOS assay was carried by either one of the two protocols as described herein:
Recombinant human inducible NOS (iNOS) was produced in Baculovirus-infected Sf9 cells (ALEXIS). In a radiometric method, NO synthase activity was determined by measuring the conversion of [^3H]L-arginine to [^3H]L-citrulline. To measure iNOS, 10 μL of enzyme was added to 100 μL of 100 mM HEPES, pH=7.4, containing 1 mM CaCl2, 1 mM EDTA, 1 mM dithiothreitol, 1 μM FMN, 1 μM FAD, 10 μM tetrahydrobiopterin, 120 μM NADPH, and 100 nM CaM.
To measure enzyme inhibition, a 15 μL solution of a test substance was added to the enzyme assay solution, followed by a pre-incubation time of 15 min at RT. The reaction was initiated by addition of 20 μL L-arginine containing 0.25 μCi of [^3H] arginine/mL and 24 μM L-arginine. The total volume of the reaction mixture was 150 μL in every well. The reactions were carried out at 37° C. for 45 minutes, The reaction was stopped by adding 20 μL of ice-cold buffer containing 100 mM HEPES, 3 mM EGTA, 3 mM EDTA, pH=5.5. [^3H]L-citrulline was separated by DOWEX (ion-exchange resin DOWEX 50 W×8-400, SIGMA) and the DOWEX was removed by spinning at 12,000 g for 10 min in the centrifuge. An aliquot (70 μL) of the supernatant was added to 100 μL of scintillation fluid, and the samples were counted in a liquid scintillation counter (1450 Microbeta Jet, Wallac). Specific NOS activity was reported as the difference between the activity recovered from the test solution and that observed in a control sample containing 240 mM of the inhibitor L-NMMA. All assays were performed at least in duplicate. Standard deviations are 10% or less.
Primary stock solutions of each test compound were prepared in distilled water on the day of study to obtain a final concentration of 6 mM. For the determination of IC50 values, 11 test compound concentrations were prepared as 3-fold serial dilutions. Test compounds were tested in the iNOS assay at a concentration of 1000 μM to 0.0169 μM. The vehicle of the test compound or inhibitor, distilled water, was used as blank control. For non-specific activity, 100 μM L-NMMA was run in parallel as a control.
All incubations were performed in duplicate
The reaction mixture was prepared on ice by the addition of the following components to the appropriate well of a 1.0 mL 96-well polypropylene plate:
10 μL of test compound, reference inhibitor, or control (vehicle or L-NMMA) solution;
25 μL of Reaction Buffer (50 mM Tris-HCl, 6 μM BH4, 2 μM FMN, 2 μM FAD);
5 μL of 10 mM NADPH solution;
5 μL of 1 μM Calmodulin; and
The reaction mixture was pre-incubated at room temperature for 15 minutes. Following this pre-incubation, the reaction was initiated by the addition of 5 μL of the substrate L-arginine (1 μCi of [^3H]-L-Arginine+30 μM of unlabeled L-Arginine) to the reaction mixture. The total reaction volume was 60 μL. The assay plate containing the reaction mixtures was sealed and incubated at 37° C. for 30 minutes. At the end of this incubation period, 400 μL of ice-cold Stop Buffer (the EDTA in the Stop Buffer chelates all of the available calcium) was added to each well to stop the reaction. 100 μL of equilibrated resin pH 5.5 was added to each of the assay wells. The reaction samples were vortexed and transferred to spin cups, after-which they were centrifuged at 13,000 rpm for 30 sec. The spin cups were removed from the holder and […] (containing the unbound L-citrulline) were added to the appropriate wells of a 96-well liquid scintillation plate. 175 μL of scintillation fluid were also added to each well. The plate was sealed, and radioactivity was quantitated using a Microbeta liquid scintillation counter.
Data were analyzed using a Sigmoidal dose-response (variable slope) curve to determine the IC50 value of the test compound. Y=Bottom+(Top−Bottom)/(1+10^((Log IC50−X)*Hill Slope))

| SMILES | patients with a reduction in the frequency of migraine attack of 50% (migraine attack) [%] | patient mortality (cardiogenic shock) [%] | response rate (migraine) [%] | survival rate (persistent shock) [%] | Selectivity eNOS/nNOS [1] | IC50 [1] [µM] | IC50 [2] [µM] | IC50 [3] [µM] |
| --- | --- | --- | --- | --- | --- | --- | --- | --- |
| C/C1=C2/[N-][C@H]([C@H](CC(N)=O)[C@@]2(C)CCC(=O)NC[C@@H](C)OP(=O)([O-])O[C@H]2[C@@H](O)[C@@H](n3cnc4cc(C)c(C)cc43)O[C@@H]2CO)[C@]2(C)N=C(/C(C)=C3N=C(/C=C4N=C1[C@@H](CCC(N)=O)C\4(C)C)[C@@H](CCC(N)=O)[C@]\3(C)CC(N)=O)[C@@H](CCC(N)=O)[C@]2(C)CC(N)=O.[Co+3].[OH-] [hydroxycobalamin] | 53 |  |  |  |  |  |  |  |
| COC(=O)[C@@H](N)CCCNC(=N)N[N+](=O)[O-] [L-NAME, N^G-Nitro-L-arginine methyl ester] |  | 27 |  |  |  |  |  |  |
| CN=C(N)NCCC[C@H](N)C(=O)O.Cl [L-NMMA, L-N^G methylarginine hydrochloride] |  |  | 67 | 72 |  |  |  |  |
| CN(C)CCN1CCOc2ccc(NC(=N)c3cccs3)cc21 [Compound 9, N-(4-(2-(dimethylamino)ethyl)-3,4-dihydro-2H-benzo[b][1,4]oxazin-6-yl)-thiophene-2-carboximidamide] |  |  |  |  | 182.5 | 0.2 | 36.5 | 7.25 |
| N=C(Nc1ccc2c(c1)SCCN2CCCN1CCCC1)c1cccs1 [Compound 21, N-(4-(3-(pyrrolidin-1-yl)propyl)-3,4-dihydro-2H-benzo[b][1,4]thiazin-7-yl)thiophene-2-carboximidamide] |  |  |  |  | 71.4 | 0.14 | 10 | 49.6 |
| CNCCN1CCOc2ccc(NC(=N)c3cccs3)cc21 [Compound 10, N-(4-(2-(methylamino)ethyl)-3,4-dihydro-2H-benzo[b][1,4]oxazin-6-yl)-thiophene-2-carboximidamide dihydrochloride] |  |  |  |  | 47.7 | 0.08 | 3.82 | 3.74 |
| CCN(CC)CCN1CCSc2cc(NC(=N)c3cccs3)ccc21 [Compound 15, N-(4-(2-(Diethylamino)ethyl)-3,4-dihydro-2H-benzo[b][1,4]thiazin-7-yl)thiophene-2-carboximidamide] |  |  |  |  | 134 | 0.15 | 20.1 | 40.7 |
| N=C(Nc1ccc2c(c1)SCCN2CCNCCO)c1cccs1 [Compound 16, N-(4-(2-(2-hydroxyethylamino)ethyl)-3,4-dihydro-2H-benzo[b][1,4]thiazin-7-yl)thiophene-2-carboximidamide dihydrochloride] |  |  |  |  | 205 | 0.034 | 7 | 58.7 |
| N=C(Nc1ccc2c(c1)N(CCN1CCCC1)CCS2)c1cccs1 [Compound 25, N-(4-(2-(pyrrolidin-1-yl)ethyl)-3,4-dihydro-2H-benzo[b][1,4]thiazin-6-yl)thiophene-2-carboximidamide] |  |  |  |  | 90.5 | 0.2 | 18.1 | 43.6 |
| N=C(Nc1ccc2c(c1)OCCN2CCN1CCCC1)c1cccs1 [Compound 4, N-(4-(2-(pyrrolidin-1-yl)ethyl)-3,4-dihydro-2H-benzo[b][1,4]oxazin-7-yl)thiophene-2-carboximidamide] |  |  |  |  | 61.2 | 0.41 | 25.1 | 2.7 |
| CN(C)CCN1CCSc2cc(NC(=N)c3cccs3)ccc21 [Compound 12, N-(4-(2-(Dimethylamino)ethyl)-3,4-dihydro-2H-benzo[b][1,4]thiazin-7-yl)thiophene-2-carboximidamide dihydrochloride] |  |  |  |  | 159.1 | 0.12 | 19.1 | 62.9 |
| CNCCN1CCSc2cc(NC(=N)c3ccco3)ccc21 [Compound 20, N-(4-(2-(methylamino)ethyl)-3,4-dihydro-2H-benzo[b][1,4]thiazin-7-yl)furan-2-carboximidamide] |  |  |  |  | 290 | 0.16 | 46.4 | 268 |
| CNCCCN1CCSc2cc(NC(=N)c3cccs3)ccc21 [Compound 23, N-(4-(3-(methylamino)propyl)-3,4-dihydro-2H-benzo[b][1,4]thiazin-7-yl)thiophene-2-carboximidamide] |  |  |  |  | 664 | 0.028 | 18.6 | 172 |
| CN(C)CCN1CCSc2cc(NC(=N)c3ccco3)ccc21 [Compound 19, N-(4-(2-(dimethylamino)ethyl)-3,4-dihydro-2H-benzo[b][1,4]thiazin-7-yl)furan-2-carboximidamide] |  |  |  |  | 676 | 0.14 | 94.7 | 136 |

— patent US8618286B2, “Benzoxazines, benzothiazines, and related compounds having NOS inhibitory activity” (NeurAxon, Inc., priority 2008, dated 2013)
